Reference: US11713315B2, “5 to 7 membered heterocyclic amides as JAK inhibitors” (priority 2018, dated 2023)

Experiment: Lung S9 metabolism
Assay type: in vitro ADME
Details: human lung S9; qualitative observation of O-sulfate metabolite peak
Experimental: Lung S9 fractions from human (lot 1410245) were purchased from XenoTech LLC (Lenexa, Kans.). NADPH (Sigma Aldrich, N1630) and 3-phosphoadenosine 5-phosphosulfate (PAPS) (Sigma Aldrich, A1651) were purchased from Sigma Aldrich (St. Louis, Mo.). Acetonitrile and water were obtained from VWR (Radnor, Pa.) and were of HPLC grade or better. Raloxifene and formic acid was purchased from Sigma Aldrich (St. Louis, Mo.). Lung S9 incubations were performed in a water bath at 37° C. in a 96-well polypropylene plate. […] All samples were centrifuged at 2250 g for 10 minutes at 5° C. Supernatant […] was taken from the centrifuged samples and diluted into 1004 HPLC water containing internal standard. […] Mobile Phase A consisted of Water+0.2% formic acid and Mobile Phase B consisted of acetonitrile+0.2% formic acid. Peak integration was accomplished using Gubbs GMSU software (Gubbs Inc., Alpharetta, Ga.). For each sample, peak area ratios were calculated by dividing the analyte peak area by the internal standard peak area. […] Determination of sulfate metabolite formation was made qualitatively by observation of early-eluting peak in the parent ion channel which, based on historical internal data, corresponded to the 0-sulfate metabolite of each parent compound.

Structure (SMILES) | Sulfate Appearance
CCc1cc(O)ccc1-c1ccc2c(-c3nc4c([nH]3)CN(C(C)C)[C@H](C(=O)N3CCCN(C)CC3)C4)n[nH]c2c1 [Compound 4, (S)-(2-(6-(2-ethyl-4-hydroxyphenyl)-1H-indazol-3-yl)-5-isopropyl-4,5,6,7-tetrahydro-3H-imidazo[4,5-c]pyridin-6-yl)(4-methyl-1,4-diazepan-1-yl)methanone] | Yes
CCc1cc(O)ccc1-c1ccc2c(-c3nc4c([nH]3)CN(C)[C@H](C(=O)N3CCN(C)C[C@@H]3C)C4)n[nH]c2c1 [Compound 3, ((S)-2,4-dimethylpiperazin-1-yl)((S)-2-(6-(2-ethyl-4-hydroxyphenyl)-1H-indazol-3-yl)-5-methyl-4,5,6,7-tetrahydro-3H-imidazo[4,5-c]pyridin-6-yl)methanone] | Yes
CCc1cc(O)ccc1-c1ccc2c(-c3nc4c([nH]3)CN(C(C)C)[C@H](C(=O)N3CC[C@H](N(C)C)C3)C4)n[nH]c2c1 [Compound 6, ((S)-3-(dimethylamino)pyrrolidin-1-yl)((S)-2-(6-(2-ethyl-4-hydroxyphenyl)-1H-indazol-3-yl)-5-isopropyl-4,5,6,7-tetrahydro-3H-imidazo[4,5-c]pyridin-6-yl)methanone] | Yes
CCCN1Cc2[nH]c(-c3n[nH]c4cc(-c5ccc(O)cc5CC)ccc34)nc2C[C@H]1C(=O)N1CCN(CCO)CC1 [Compound 1, (S)-(2-(6-(2-ethyl-4-hydroxyphenyl)-1H-indazol-3-yl)-5-propyl-4,5,6,7-tetrahydro-3H-imidazo[4,5-c]pyridin-6-yl)(4-(2-hydroxyethyl)piperazin-1-yl)methanone] | Yes
CCc1cc(O)ccc1-c1ccc2c(-c3nc4c([nH]3)CN(C)[C@H](C(=O)N3CCN(CCO)C[C@H]3C)C4)n[nH]c2c1 [Compound 5, ((S)-2-(6-(2-ethyl-4-hydroxyphenyl)-1H-indazol-3-yl)-5-methyl-4,5,6,7-tetrahydro-3H-imidazo[4,5-c]pyridin-6-yl)((R)-4-(2-hydroxyethyl)-2-methylpiperazin-1-yl)methanone] | Yes
CCCN1Cc2[nH]c(-c3n[nH]c4cc(-c5ccc(O)cc5CC)ccc34)nc2C[C@H]1C(=O)N1C[C@@H]2C[C@H]1CN2C [Compound 2, ((S)-2-(6-(2-ethyl-4-hydroxyphenyl)-1H-indazol-3-yl)-5-propyl-4,5,6,7-tetrahydro-3H-imidazo[4,5-c]pyridin-6-yl)((1S,4S)-5-methyl-2,5-diazabicyclo[2.2.1]heptan-2-yl)methanone] | Yes

Continued, values first:

Sulfate Appearance | Structure (SMILES)
Yes | CCCN1Cc2[nH]c(-c3n[nH]c4cc(-c5cc(F)c(O)cc5CC)ccc34)nc2C[C@H]1C(=O)N1CCN(CCO)CC1 [Compound C-1, (S)-(2-(6-(2-ethyl-5-fluoro-4-hydroxyphenyl)-1H-indazol-3-yl)-5-propyl-4,5,6,7-tetrahydro-3H-imidazo[4,5-c]pyridin-6-yl)(4-(2-hydroxyethyl)piperazin-1-yl)methanone]
Yes | CCc1cc(O)c(F)cc1-c1ccc2c(-c3nc4c([nH]3)CN(C(C)C)[C@H](C(=O)N3CC[C@H](N(C)C)C3)C4)n[nH]c2c1 [Compound C-6]
Yes | CCc1cc(O)c(F)cc1-c1ccc2c(-c3nc4c([nH]3)CN(C)[C@H](C(=O)N3CCN(CCO)C[C@H]3C)C4)n[nH]c2c1 [Compound C-5, ((S)-2-(6-(2-ethyl-5-fluoro-4-hydroxyphenyl)-1H-indazol-3-yl)-5-methyl-4,5,6,7-tetrahydro-3H-imidazo[4,5-c]pyridin-6-yl)((R)-4-(2-hydroxyethyl)-2-methyl-piperazin-1-yl)methanone]
Yes | CCCN1Cc2[nH]c(-c3n[nH]c4cc(-c5cc(F)c(O)cc5CC)ccc34)nc2C[C@H]1C(=O)N1C[C@@H]2C[C@H]1CN2C [Compound C-2]
Yes | CCc1cc(O)c(F)cc1-c1ccc2c(-c3nc4c([nH]3)CN(C)[C@H](C(=O)N3CCN(C)C[C@@H]3C)C4)n[nH]c2c1 [Compound C-3, ((S)-2,4-dimethylpiperazin-1-yl)((S)-2-(6-(2-ethyl-5-fluoro-4-hydroxyphenyl)-1H-indazol-3-yl)-5-methyl-4,5,6,7-tetrahydro-3H-imidazo[4,5-c]pyridin-6-yl)methanone]
Yes | CCc1cc(O)c(F)cc1-c1ccc2c(-c3nc4c([nH]3)CN(C(C)C)[C@H](C(=O)N3CCCN(C)CC3)C4)n[nH]c2c1 [Compound C-4, (S)-(2-(6-(2-ethyl-5-fluoro-4-hydroxyphenyl)-1H-indazol-3-yl)-5-isopropyl-4,5,6,7-tetrahydro-3H-imidazo[4,5-c]pyridin-6-yl)(4-methyl-1,4-diazepan-1-yl)methanone]
